Experimental data from US20040254162A1, “Oxazolidinone derivatives as antimicrobials” (priority 2001, published 2004).
Values after ≈ are worked out from the molar mass of the structure shown.

Legend:
[1] = test system: Prevotella bivia; assay: Agar dilution MIC, anaerobes; format: cell-based; details: Prevotella bivia; single isolate, anaerobic agar dilution; read-out: MIC Prevotella bivia
[2] = test system: Porphyromonas gingivalis; assay: Agar dilution MIC, anaerobes; format: cell-based; details: Porphyromonas gingivalis; single isolate, anaerobic agar dilution; read-out: MIC Porphyromonas gingivalis
[3] = test system: Clostridium difficile; assay: Agar dilution MIC, anaerobes; format: cell-based; details: single isolates, anaerobic agar dilution
[4] = test system: Prevotella intermedia; assay: Agar dilution MIC, anaerobes; format: cell-based; details: Prevotella intermedia, single isolates, anaerobic agar dilution; read-out: MIC Prevotella intermedia
[5] = test system: anaerobic bacteria; assay: Agar dilution method for anaerobic bacteria, summary; format: cell-based
[6] = test system: Porphyromonas asaccharolytica; assay: Agar dilution MIC, anaerobes; format: cell-based; details: Porphyromonas asaccharolytica; single isolate, anaerobic agar dilution; read-out: MIC Porphyromonas asaccharolytica
[7] = test system: Peptostreptococcus prevotii; assay: Agar dilution MIC, anaerobes; format: cell-based; details: single isolates, anaerobic agar dilution
[8] = test system: Clostridium perfringens; assay: microbe, parasite or virus in culture; format: cell-based
[9] = test system: Clostridium camis; assay: Agar dilution MIC, anaerobes; format: cell-based; details: Clostridium; single isolates, anaerobic agar dilution; read-out: MIC Clostridium camis
[10] = test system: P. acnes; assay: Agar dilution MIC, anaerobes; format: cell-based; details: Cutibacterium acnes, single isolates, anaerobic agar dilution; read-out: MIC P. acnes
[11] = test system: Prevotella melaninogenica; assay: Agar dilution MIC, anaerobes; format: cell-based; details: Prevotella melaninogenica, single isolates, anaerobic agar dilution; read-out: MIC Prevotella melaninogenica
[12] = test system: Prevotella (Bacteroides) disiens; assay: Agar dilution MIC, anaerobes; format: cell-based; details: single isolates, anaerobic agar dilution
[13] = test system: Fusobacterium necrogenes; assay: Agar dilution MIC, anaerobes; format: cell-based; details: Fusobacterium necrogenes; single isolate, anaerobic agar dilution; read-out: MIC Fusobacterium necrogenes
[14] = test system: VRE 6A (Ent. faecium 6A); assay: MIC, agar incorporation method; details: agar incorporation
[15] = test system: MRSA 33; assay: MIC, agar incorporation method; details: agar incorporation
[16] = test system: S. aureus ATCC 25923; assay: MIC, agar incorporation method; details: agar incorporation
[17] = test system: Ent. faecalis ATCC 29212; assay: MIC, agar incorporation method; details: agar incorporation
[18] = test system: Strep. pyog. ATCC 19615; assay: MIC, agar incorporation method; details: agar incorporation
[19] = test system: MRSA 15187; assay: MIC, agar incorporation method; details: agar incorporation
[20] = test system: Strep. pne. ATCC 6303; assay: MIC, agar incorporation method; details: agar incorporation
[21] = test system: S. pneum AB 34; assay: MIC, agar incorporation method; details: agar incorporation
[22] = test system: MRSA 562; assay: In vivo activity against MRSA 562 (ED50); design: species or system Methicillin Resistant Staphylococcus aureus; details: PO; MRSA 562 infection
[23] = test system: S. aureus; assay: Summary of in vitro activity (MIC); details: S. aureus
[24] = test system: MRSA 562; assay: MIC, agar incorporation method; details: for MIC: MRSA 562, Table 5
[25] = test system: E. faecalis; assay: Summary of in vitro activity (MIC); details: E. faecalis
[26] = test system: G +ve bacteria; assay: Summary of in vitro activity (MIC)
[27] = test system: S. pneumoniae; assay: Summary of in vitro activity (MIC); details: S. pneumoniae

CCC[C@@H]1C[C@@H](C(=O)N[C@@H]([C@H]2O[C@H](SC)[C@H](O)[C@@H](O)[C@H]2O)[C@H](C)Cl)N(C)C1 [Clindamycin]
MIC [1]: > 32 µg/mL
MIC [2]: ≤ 0.016 µg/mL
MIC ([3]; Clostridioides difficile, read-out: MIC Clostridium difficile): 2 µg/mL (≈ 4.71 µM)
MIC Clostridium difficile [3]: 4 µg/mL (≈ 9.41 µM)
MIC [4]: ≤ 0.016 µg/mL
MIC50 ([5]; 48 h): 0.125 µg/mL (≈ 0.294 µM)
MIC90 ([5]; 48 h): 8 µg/mL (≈ 18.8 µM)
Geometric Mean ([5]; anaerobes): 0.208 µg/mL
MIC Range ([5]; anaerobes): 0.008 to 64 µg/mL
MIC [6]: ≤ 0.016 µg/mL
MIC ([7]; Anaerococcus prevotii, read-out: MIC Peptostreptococcus prevotii): 0.25 µg/mL (≈ 0.588 µM)
MIC Peptostreptococcus prevotii [7]: 0.125 µg/mL (≈ 0.294 µM)
MIC ([8]; Clostridium perfringens, read-out: MIC Clostridium perfringens, single isolates, anaerobic agar dilution): 1 µg/mL (≈ 2.35 µM)
MIC Clostridium perfringens ([8]; single isolates, anaerobic agar dilution): 0.5 µg/mL (≈ 1.18 µM)
MIC [9]: 0.03 µg/mL (≈ 0.0706 µM)
MIC [10]: 0.06 µg/mL (≈ 0.141 µM)
MIC [11]: ≤ 0.016 µg/mL
MIC Prevotella (Bacteroides) disiens [12]: 4 µg/mL (≈ 9.41 µM)
MIC ([12]; read-out: MIC Prevotella (Bacteroides) disiens): 8 µg/mL (≈ 18.8 µM)
MIC [13]: 0.03 µg/mL (≈ 0.0706 µM)

CC(=O)NC[C@H]1CN(c2ccc(N3CCN(C(=O)c4ccc(Br)o4)CC3)c(F)c2)C(=O)O1 [Compound No. 04]
MIC VRE 6A [14]: 1 µg/mL (≈ 1.96 µM)
MIC MRSA 33 [15]: 2 µg/mL (≈ 3.93 µM)
MIC S. aureus 25923 [16]: 2 µg/mL (≈ 3.93 µM)
MIC E. faecalis 29212 [17]: 2 µg/mL (≈ 3.93 µM)
MIC S. pyogenes 19615 [18]: 2 µg/mL (≈ 3.93 µM)
MIC MRSA 15187 [19]: 2 µg/mL (≈ 3.93 µM)
MIC S. pneum 6303 [20]: 1 µg/mL (≈ 1.96 µM)
MIC S. pneum AB 34 [21]: 1 µg/mL (≈ 1.96 µM)
ED50 (mg/kg body weight) PO [22]: >25 mg/kg body weight

CC(=O)NC[C@H]1CN(c2ccc(N3CCN(C(=O)c4ccc([N+](=O)[O-])o4)CC3)c(F)c2)C(=O)O1 [Compound No. 06, (S)-N-[[3-Fluoro-4-[N-1[4-(5-nitro-2-furoyl)piperazinyl]phenyl]-2-oxo-5-oxazolidinyl]methyl]acetamide]
MIC VRE 6A [14]: 1 µg/mL (≈ 2.1 µM)
Geometric Mean of in vitro activity (MIC) [23]: 0.74 µg/mL
MIC50 ([23]; Number 8): 1 µg/mL (≈ 2.1 µM)
MIC90 ([23]; Number 8): 1 µg/mL (≈ 2.1 µM)
MIC MRSA 33 [15]: 0.5 µg/mL (≈ 1.05 µM)
MIC S. aureus 25923 [16]: 1 µg/mL (≈ 2.1 µM)
MIC E. faecalis 29212 [17]: 1 µg/mL (≈ 2.1 µM)
MIC [24]: 1 µg/mL (≈ 2.1 µM)
Geometric Mean of in vitro activity (MIC) [25]: 0.92 µg/mL
MIC50 ([25]; Number 7): 1 µg/mL (≈ 2.1 µM)
MIC90 ([25]; Number 7): 1 µg/mL (≈ 2.1 µM)
MIC S. pyogenes 19615 [18]: 2 µg/mL (≈ 4.21 µM)
MIC50 ([26]; G +ve, Number 49): 1 µg/mL (≈ 2.1 µM)
MIC90 ([26]; G +ve, Number 49): 2 µg/mL (≈ 4.21 µM)
Geometric Mean of in vitro activity (MIC) ([26]; Gram + ve): 0.79 µg/mL
MIC MRSA 15187 [19]: 0.5 µg/mL (≈ 1.05 µM)
MIC S. pneum 6303 [20]: 2 µg/mL (≈ 4.21 µM)
Geometric Mean of in vitro activity (MIC) [27]: 1.27 µg/mL
MIC50 ([27]; Number 19): 2 µg/mL (≈ 4.21 µM)
MIC90 ([27]; Number 19): 2 µg/mL (≈ 4.21 µM)
MIC S. pneum AB 34 [21]: 2 µg/mL (≈ 4.21 µM)
ED50 (mg/kg body weight) PO [22]: >25 mg/kg body weight

CC(=O)NC[C@H]1CN(c2ccc(N3CCN(C(=O)C(=O)c4cccs4)CC3)c(F)c2)C(=O)O1 [Compound No. 07, (S)-N[[3-[3-Fluoro-4-[N-1[4-{2-(2-thienyl)dicarbonyl}]piperazinyl]phenyl]2-oxo-5-oxazolidinyl]methyl]acetamide]
MIC VRE 6A [14]: 2 µg/mL (≈ 4.21 µM)
MIC MRSA 33 [15]: 2 µg/mL (≈ 4.21 µM)
MIC S. aureus 25923 [16]: 2 µg/mL (≈ 4.21 µM)
MIC E. faecalis 29212 [17]: 2 µg/mL (≈ 4.21 µM)
MIC [24]: 2 µg/mL (≈ 4.21 µM)
MIC MRSA 562 ([24]; agar incorporation, Table 1): 2 µg/mL (≈ 4.21 µM)
MIC S. pyogenes 19615 [18]: 0.5 µg/mL (≈ 1.05 µM)
MIC MRSA 15187 [19]: 2 µg/mL (≈ 4.21 µM)
MIC S. pneum 6303 [20]: 2 µg/mL (≈ 4.21 µM)
MIC S. pneum AB 34 [21]: 2 µg/mL (≈ 4.21 µM)
ED50 (mg/kg body weight) PO [22]: >25 mg/kg body weight
